Data published in patent publication US11530514B2, “Method for manufacturing a fibrous web” (Kemira Oyj, priority 2017, dated 2022).
Structures can show the parent of a compound that is named as a salt.

How the values were obtained:
Type in all cases: cell-based
aerobic spores [1] = experiment: Example 2: aerobic spore count in stagnant 2 d old broke diluted with circulation water
Procedure: (§1) Authentic broke and circulation water samples were collected from an alkaline paper mill producing food packaging board. 1 litre of broke was stored for 2 days, +45° C., with closed cap, without mixing, in order to induce anaerobism and thus bacterial sporulation. This stagnant sample was divided to four 100 ml samples, out of which two replicate samples were treated with a germinant surfactant comprising 35 weight-% dodecylguanidine hydrochloride (DGH) and dipropyleneglycol as solvent. The dosage was 70 mg/L as active DGH. Two replicates were left without any chemical additions as reference samples.
(§2) After chemical contact time of 5 min, all samples were diluted three times with the circulation water and incubated for 30 minutes, at +45° C., mixing of 160 rpm. Total aerobes (PCA, +37° C.) and aerobic spores (PCA, +37° C.) were measured at start from reference samples and after the total contact time of 35 min from all samples.

total aerobic bacteria [2] = experiment: Example 1: total aerobic bacteria count in paper machine water/broke at variable pulp consistency; conditions: for Bacterial killing efficacy (%): DGH 100 mg/L as active vs no addition; for Total aerobic bacteria (+32° C., 2 d PCA): DGH 100 mg/L as active, 30 min, 45° C.
Text: (§3) Objective of this laboratory test was to study bacterial killing and spore sensitisation effect of a germinant surfactant composition comprising 35 weight-% of dodecylguanidine hydrochloride (DGH) and dipropyleneglycol as solvent in paper machine process water, at variable pulp consistency.
(§4) Authentic circulation water, with low fibre content, and authentic broke, with high fibre content, were collected from a paper machine, which produced food packaging board. Circulation water and broke samples were mixed together to obtain 6 samples in total, at 3 different pulp consistency levels.
(§5) To obtain equal bacterial spore content in the samples at the start of the experiment, each sample was spiked with additional bacterial spores. Target spore level in the sample was set to ca. 10 000 CFU/ml. The spore solution for spiking was prepared as follows: authentic spore-forming bacteria that were isolated from a paper making process were pre-grown for 2 days at +37° C. in a modified nutrient broth, after which the mature spores were harvested, and washed by using centrifugation and cold water.
(§6) Out of the 6 samples, 3 test samples were treated with germinant surfactant comprising dodecylguanidine hydrochloride (DGH) and 3 samples were left without any chemical addition as reference samples. After addition of germinant surfactant, the test samples as well as the reference samples (no addition) were stored at 45° C., mixing of 180 rpm, for 30 minutes, followed by quantification of total aerobic bacteria (non-pasteurized samples) and aerobic spores (plate count agar, +32° C., 2 days incubation). Prior to the aerobic spore determination, samples were pasteurized at +82° C. for 10 min. Weight of suspended solids per litre of liquid, i.e. pulp consistency, was determined at the end of the test (dry weight of sample per total weight of sample).

total aerobic bacteria [3] = experiment: Example 2: total aerobes count in stagnant 2 d old broke diluted with circulation water; conditions: DGH 70 mg/l active 5 min, total contact time 35 min, +45° C., untreated 9×10^6 CFU/ml
Procedure: as §1, §2

aerobic spores [4] = experiment: Example 1: aerobic spore count in spiked paper machine water/broke at variable pulp consistency; conditions: for Spore reduction (%): DGH 100 mg/L as active vs no addition; for Aerobic spores, cfu/ml (+82° C., 10 min, +32° C., 2 d PCA): DGH 100 mg/L as active, 30 min, 45° C.
Text: as §3, §4, §5, §6

aerobic spores [5] = experiment: Example 3: aerobic spore count in spiked paper machine process water, biocidal pre-treatment
Procedure: (§7) Objective of this laboratory test was to study effect of biocidal pre-treatment on bacterial killing and spore sensitisation efficacy of a germinant surfactant comprising 35 weight-% of dodecylguanidine hydrochloride (DGH) and dipropyleneglycol as solvent in paper machine process water.
Authentic circulation water (1 litre) was collected from a paper machine producing food packaging board and divided into 4 samples with volume of 50 ml. To obtain equal bacterial spore content in the samples at start of the experiment, each sample was spiked with additional bacterial spores. The target level for spores was c.a. 10 000 CFU/ml. The spore solution for spiking was prepared as follows: authentic spore-forming bacteria that were isolated from a paper making process were pre-grown for 2 days at +37° C. in modified nutrient broth, after which the mature spores were harvested, and washed by using centrifugation and cold water. Out of the 4 samples, • the first sample was left without any chemical addition as a reference sample. • the second sample was treated with sodium hypochlorite, at dosage of 5 mg/I, given as active chlorine; • the third sample was treated with a germinant surfactant comprising dodecylguanidine hydrochloride (DGH), at dosage level of 100 mg/I, given as active compound; and • the fourth sample was treated with sodium hypochlorite, at dosage of 5 mg/I, given as active chlorine) for 1 minute, after which the […] sample was treated with a germinant surfactant comprising dodecylguanidine hydrochloride (DGH), at dosage level of 100 mg/I, given as active compound;
(§8) Samples were stored at 45° C., under mixing of 180 rpm, for 30 minutes except samples 2 and 4, which were in addition pre-treated with sodium hypochlorite for 1 minute. After the treatment the amount of total aerobic bacteria (non-pasteurized samples) and aerobic spores were quantified (plate count agar, +32° C., 2 days incubation). Prior to the aerobic spore determination, samples were pasteurized at +82° C. for 10 min.

total aerobic bacteria [6] = experiment: Example 3: total aerobic bacteria count in paper machine process water, biocidal pre-treatment; conditions: sodium hypochlorite 5 ppm as active chlorine (1 min pre-treatment) and/or DGH 100 ppm as active, untreated 7 000 000
Procedure: as §7
Authentic circulation water (1 litre) was collected from a paper machine producing food packaging board and divided into 4 samples with volume of 50 ml. To obtain equal bacterial spore content in the samples at start of the experiment, each sample was spiked with additional bacterial spores. The target level for spores was c.a. 10 000 CFU/ml. The spore solution for spiking was prepared as follows: authentic spore-forming bacteria that were isolated from a paper making process were pre-grown for 2 days at +37° C. in modified nutrient broth, after which the mature spores were harvested, and washed by using centrifugation and cold water. […]
as §8, with “Prior to the aerobic spore determination, samples were pasteurized at +82° C. for 10 min.” left out

SMILES | level of aerobic spores (aerobic spores [1]; stagnant 2 d old broke, DGH 70 mg/l active 5 min, diluted, total contact time 35 min, +45° C., untreated 330 CFU/ml) [CFU/ml] | spore reduction (aerobic spores [1]; stagnant diluted broke, DGH 70 mg/l active) [%] | Bacterial killing efficacy (%) (total aerobic bacteria [2]; pulp consistency 0.1 w/w-%) | Total aerobic bacteria (+32° C., 2 d PCA) (total aerobic bacteria [2]; pulp consistency 0.1 w/w-%) | Bacterial killing efficacy (%) (total aerobic bacteria [2]; pulp consistency 3 w/w-%) | Total aerobic bacteria (+32° C., 2 d PCA) (total aerobic bacteria [2]; pulp consistency 3 w/w-%) | Bacterial killing efficacy (%) (total aerobic bacteria [2]; pulp consistency 6 w/w-%) | Total aerobic bacteria (+32° C., 2 d PCA) (total aerobic bacteria [2]; pulp consistency 6 w/w-%) | total aerobic bacteria level (total aerobic bacteria [3]) | spore reduction (aerobic spores [4]; process streams with different pulp consistencies (summary of Example 1)) [%] | Spore reduction (%) (aerobic spores [4]; pulp consistency 0.1 w/w-%) | Aerobic spores, cfu/ml (+82° C., 10 min, +32° C., 2 d PCA) (aerobic spores [4]; pulp consistency 0.1 w/w-%) [cfu/ml] | Spore reduction (%) (aerobic spores [4]; pulp consistency 3 w/w-%) | Aerobic spores, cfu/ml (+82° C., 10 min, +32° C., 2 d PCA) (aerobic spores [4]; pulp consistency 3 w/w-%) [cfu/ml] | Spore reduction (%) (aerobic spores [4]; pulp consistency 6 w/w-%) | Aerobic spores, cfu/ml (+82° C., 10 min, +32° C., 2 d PCA) (aerobic spores [4]; pulp consistency 6 w/w-%) | spore reduction (aerobic spores [5]; DGH 100 mg/l active, with or without sodium hypochlorite 5 mg/l pre-treatment, vs untreated) [%] | Total aerobic bacteria PCA +32, 30 min @45° C. (total aerobic bacteria [6]) | Aerobic spores PCA +32 30 min @45° C. (aerobic spores [5]; pasteurized +82° C. 10 min, sodium hypochlorite 5 ppm as active chlorine and/or DGH 100 ppm as active, untreated 13 000) | effect on bacterial spores (aerobic spores [5]; sodium hypochlorite 5 mg/l as active chlorine)
CCCCCCCCCCCCNC(=N)N [DGH, dodecylguanidine hydrochloride] | 120 | > 60 | 100 | 300 | 78 | 9 000 | 55 | 77 000 | 2×10^6 CFU/ml | > 45 | 98 | 400 | 87 | 700 | 45 | 2 800 cfu/ml | > 70 | 10 000 CFU/ml | – | –
OCl [sodium hypochlorite] | – | – | – | – | – | – | – | – | – | – | – | – | – | – | – | – | – | – | 17 000 CFU/ml | did not have any effect on bacterial spores
